# Source: US20050079502A1, “Transplant rejection suppressor” (AJINOMOTO CO. INC., priority 2000, published 2005)
# Columns and labels:
# [1] = system: IL-12; experiment: IL-12 productivity of Mφ prepared by intraperitoneal injection of substances; assay type: in vivo, mice; settings: stimulation with LPS and IFNγ; Mφ prepared by intraperitoneal injection of the substance
# Experimental: (§1) The quantitative determination of IL-12 was conducted by a bioassay using human T cell strain 2D6 cells (refer to J. LEUKOCYTE BIOLOGY, vol. 61, PP 346, 1997).
# (§2) The 2D6 cells cultured in RPMI 1640 medium containing 500 pg/ml of recombinant human IL-12, 50 μM 2-mercaptoethanol and 10% FCS (bovine fetal serum) were shifted into a tube and centrifugally washed three times with the same medium from which IL-12 was removed, and the cell concentration was adjusted to 1×10^5/ml. The cell suspension was added in an amount of 100 μl to each well of a 96-well flat bottom plate in which 100 μl of a sample diluted in series with RPMI 1640 medium containing 50 μM 2-mercaptoethanol and 10% FCS was previously charged in each well. The mixture was then charged into a 5% CO2 incubator at 37° C. to conduct the incubation for 48 hours. In the last 6 hours, ^3H-TdR was pulsed (a substance adjusted to 370 kBq/ml with RPMI 1640 medium containing 50 μM 2-mercaptoethanol and 10% FCS was added in an amount of 50 μl each). The cells were harvested, and a radioactivity was measured with a β counter (Matrix 96: manufactured by Packard).
# Mφ prepared by intraperitoneally injecting LNT is reductive Mφ having a high GSH content, and Mφ prepared by intraperitoneally injecting LPS is oxidative Mφ having a low GSH content. It was examined whether or not there was a difference in IL-12 productivity between LNT derived Mφ and LPS derived Mφ.
# Then, the same analysis was conducted using Mφ prepared by intraperitoneally injecting substances of changing the GSH content in cells.
# [2] = system: IL-12; experiment: Inhibition of IL-12 production from LNT-induced Mφ by addition of DEM or BCNU; assay type: cell-based
# Experimental: as §1, §2
# It was shown that IL-12 was produced only in reductive Mφ having the high GSH content in cells. […] That is, it was analyzed whether the IL-12 production was inhibited by stimulating the Mφ induced by LNT with DEM or BCNU.
# [3] = system: IL-6; experiment: IL-6 productivity of Mφ from treated JAK3 knockout mice; assay type: in vivo; settings: LPS stimulation, 1 mg/ml in drinking water 24 days, untreated knockout 962 pg/ml
# Experimental: A stimulator was added to 1×10^6 Mφ, and the mixture was incubated in a CO2 incubator at 37° C. for 2 days. After centrifugation, the culture supernatant was collected.
# The quantitative determination of IL-6 was conducted using mouse hybridoma MH60 cells grown dependently on IL-6 (refer to J. EUR. IMMUNOL., vol. 18, PP 951, 1988). 100 μl of the culture supernatant was added to 100 μl of the MH60 cell solution adjusted to a concentration of 1×10^5 cells/ml with a 10% FCS-containing RPMI medium, and the mixture was incubated in a CO2 incubator at 37° C. for 2 days. Then, 10 μl of MTT (made by Sigma) was adjusted to a concentration of 5 mg/ml with the same medium. The mixture was reacted at 37° C. for 5 hours. After completion of the reaction, the reaction mixture was centrifuged to remove 160 μl of the supernatant. 100 μl of hydrochloric acid-propanol was added thereto, and it was suspended therein with a pipette man to dissolve cells. Immediately after the dissolution, absorbance of 570 nm was measured by an immunometer (manufactured by Bio-Rad).
# (§3) JAK3 knockout mice were divided into three groups. […]
# [4] = system: peritoneal Mφ of JAK3 knockout mice; experiment: GSH content in peritoneal cells of treated JAK3 knockout mice, ACAS with MCB reagent; assay type: in vivo; settings: 1 mg/ml in drinking water, 24 days
# Experimental: 300 μl of a cell suspension having cell concentration of 3×10^5 cells/ml was prepared in RPMI 1640 medium (phenol-red-free), and it was charged into a chambered coverglass (#136439 manufactured by Nunc) and incubated in a CO2 incubator of 37° C. for 2 hours. The culture solution was washed with the same medium, and 300 μl of 10 μM monochlorobimane (made by Molecular Plobe) prepared with the same medium was added thereto. The mixture was charged into a CO2 incubator of 37° C., and reacted for 30 minutes. An intensity of fluorescence was then measured by ACAS. By this way, UV laser was used in the ACAS.
# JAK3 knockout mice were divided into three groups. A control group was a group in which mice were caused to freely drink usual tap water, an NAC group was a group in which mice were caused to freely drink tap water containing 1 mg/ml of NAC, and a GSH-OEt group was a group in which mice was caused to freely drink tap water containing 1 mg/ml of GSH-OEt. The bleeding was continued under SPF conditions for 24 days, and peritoneal exudate adhered cells, namely macrophages were obtained in like manner.
# Peritoneal cells of knockout mice that underwent the respective treatments were prepared, and the GSH content in cells was analyzed by ACAS using an MCB reagent.
# [5] = system: IL-12; experiment: IL-12 productivity of Mφ from treated JAK3 knockout mice; assay type: in vivo; settings: stimulation with LPS and IFNγ, 1 mg/ml in drinking water 24 days, no productivity in control group
# Experimental: as §1, §2, §3
# [6] = system: skin graft (B10.D2 donor, BALB/c recipient, different in minor antigen only); experiment: Skin transplantation rejection model; assay type: in vivo, mouse
# Experimental: Mice, 8 to 10 weeks old, are used, a BALB/c (H-2d) mouse is used as a recipient in transplantation, and a B10.D2 (H-2d) mouse different in minor antigen only is used as a donor. To the recipient mouse, 3 mg of ketamine and 0.0075 mg of xylazine for anesthesia are intraperitoneally administered, and transplantation is performed. The skin on the body wall of the donor mouse is transplanted on the thoracic wall (8×8 mm). A gauze having a larger size than the graft covers there, and an antibiotic ointment is applied. The graft is fastened with a cast to complete the operation. The cast is removed after 7 days, and the rejection is then observed every day.
# Mice, 8 to 10 weeks old, were used. A BALB/c (H-2d) mouse was used as a recipient of transplantation, and a B10.D2 (H-2d) mouse different in minor antigen only was used as a donor. […]
# With respect to the drug, N,N′-diacetylcystine diethyl ester, 0.5 ml, per injection, of a 400 μg/ml solution was injected in each of the B10.D2 donor and the BALB/c recipient intraperitoneally and subcutaneously in a site for skin transplantation. […] The significant difference in graft survival rate after the skin transplantation was comparatively detected by the Breslow-Gehan-Wilcoxon test using Kaplan-Meier survival curves. […]
# [7] = system: corneal graft (B10.D2 donor, BALB/c recipient, different in minor antigen only); experiment: Corneal transplantation into high-risk eyes (induced corneal new blood vessels); rejection judged by corneal opacity score; assay type: in vivo, mouse
# From the text: In estimating the induction of the cornea take in the corneal allograft, mice, 8 to 10 weeks old, are used, a BALB/c (H-2d) mouse is used as a recipient, and a B10.D2 (H-2d) mouse only different in minor antigen is used as a donor.
# The corneal transplantation inducing corneal new blood vessel of a high-risk eye that tends to cause rejection at a high rate in an early stage in a recipient: a corneal parenchyma is sutured with three stitches using a 11-0 nylon yarn which is allowed to stand for 14 days and the nylon yarn is removed in the corneal transplantation, is performed as follows. To a recipient mouse are intraperitoneally administered 3 mg of ketamine and 0.0075 mg of xylazine for anesthesia, and transplantation is performed. A central portion of cornea in a donor mouse is cut out to a circle having a diameter of 2 mm to form a graft. A central portion of cornea in a host mouse is cut out to a diameter of 2 mm. The donor cornea is sutured on margins with eight stitches using a 11-0 nylon yarn. After the surgical operation, an antibiotic ointment is coated thereon, and the eyelids are sutured with a 8-0 nylon yarn. The eyelid suture is removed after 72 hours from the surgical operation, and the corneal suture is removed on day 7 after the transplantation.
# In the judgement of the corneal rejection, monitoring is performed twice a week using a slit-lamp microscope. The rejection is judged by scoring a corneal opacity with six grades. In connection with a time capable of judgement, the score of 3 or more on or after day 14 from the transplantation and the score of 2 or more on or after day 21 are judged to indicate the rejection. […]
# In a method of one administration, a drug is dissolved or suspended in a physiological saline solution to a predetermined concentration, and 0.5 ml thereof is then intraperitoneally injected in a mouse. […] A significant difference in graft survival rate of the corneal transplantation was comparatively detected by the Breslow-Gehan-Wilcoxon test using Kaplan-Meier survival curves. […]
# [8] = system: peritoneal exudate cells (macrophages); experiment: Induction of oxidative or reductive macrophages, monochlorobimane/ACAS analysis of peritoneal exudate cells; assay type: in vivo; settings: i.p. to mice: 20 μg LPS; 100 μg LNT three times every other day; monochlorobimane 10 μM, ACAS
# From the text: The increase in amount of oxidative macrophages can easily be detected visually from the fact that almost no reaction product is observed. More specifically, a gray or blue image is obtained. An increase in amount of reductive macrophages is known from the fact that a red or yellow image can be obtained.
compound,measurement,setting,value
"CCCCS(=N)(=O)CCC(N)C(=O)O [BSO, L-S, R-buthionine sulfoximine]",IL-12 productivity,[1],IL-12 was produced by stimulation with LPS and IFNγ only in Mφ derived from mice administered with GSH-OEt
CCOC(=O)/C=C\C(=O)OCC [DEM],IL-12 production from the Mφ induced by LNT after addition,"[2]; addition of DEM or BCNU to LNT-induced Mφ, 828 pg/ml without addition",0 pg/mL
same,IL-12 productivity,[1],IL-12 was produced by stimulation with LPS and IFNγ only in Mφ derived from mice administered with GSH-OEt
CCOC(=O)CNC(=O)[C@H](CS)NC(=O)CC[C@H](N)C(=O)O [GSH-OEt],IL-6 productivity,[3],82 pg/mL
same,IL-12 productivity,[1],"3,570 pg/ml"
same,reduced glutathione content in peritoneal Mφ vs tap water control group,[4],remarkably increased
same,IL-12 productivity,[5],610 pg/mL
"CCOC(=O)[C@H](CSSC[C@H](NC(C)=O)C(=O)OCC)NC(C)=O [N,N′-diacetylcystine diethyl ester]",MST,"[6]; 0.5 ml of 400 μg/ml i.p. and s.c., x3 before (donor and recipient) and day 3-21 after skin transplantation, N=8",28.3 ± 1.8 days
same,graft survival rate in comparison to the PBS administration control group,"[6]; skin transplantation, N=8 vs N=10, P<0.013",significantly increased
"COC(=O)[C@H](CSSC[C@H](NC(C)=O)C(=O)OC)NC(C)=O [NAC (OMe)2, N,N′-diacetylcystine dimethyl ester]",graft survival rate in comparison to the PBS administration control group,"[7]; 0.5 ml of 400 μg/ml i.p. 7 days, 4 days and 1 hour before corneal transplantation, N=15 vs N=10, P<0.0001, Breslow-Gehan-Wilcoxon test",significantly increased
same,rejection in 3 weeks,"[7]; high-risk eye corneal graft, i.p. x3 before transplantation, PBS control rejected by 100% in approximately 3 weeks",0%
same,graft survival rate finally provided,"[7]; high-risk eye corneal graft, observed till the eighth week",77%
CC(=O)N[C@@H](CS)C(=O)O [NAC],IL-6 productivity,[3],122 pg/mi
same,reduced glutathione content in peritoneal Mφ vs tap water control group,[4],remarkably increased
same,IL-12 productivity,[5],420 pg/mL
letinan [LNT],IL-12 production from the Mφ induced by LNT,[2]; without addition of DEM or BCNU,828 pg/mL
same,type of macrophages induced,[8],reductive macrophages were induced
same,IL-12 productivity,[1],"1,312 pg/ml"
lipopolysaccharide [LPS],type of macrophages induced,[8],oxidative macrophages were induced
same,IL-12 productivity,[1],no productivity was observed
